The text below walks through data of ChEMBL document CHEMBL5344429, “1,3-Substituted β-Carboline Derivatives as Potent Chemotherapy for the Treatment of Cystic Echinococcosis” (J Med Chem, 2023).

For data set [1], the system named is Echinococcus granulosus. Put plainly: Parasiticidal activity against Echinococcus granulosus protoscolices […] by eosin exclusion test. The data set is classed as functional. As to conditions: 1152 h, time 48 day.
Data set [2] concerns Echinococcus granulosus. Put plainly: Parasiticidal activity against Echinococcus granulosus protoscolices assessed as death rate at 1 uM incubated for 48 hrs by eosin exclusion test. The data set is classed as functional.
Data set [3] can be described thus: Neurotoxicity in Kunming mouse assessed as effect on heterochromatin at 50 mg/kg, ip administered for 28 days by TEM analysis. The data set is classed as toxicity, organism-based. As to conditions: in vivo, 672 h, time 28 day.
The nature of data set [4]: Neurotoxicity in Kunming mouse assessed as organelles damage at 50 mg/kg, ip administered for 28 days by TEM analysis. The following applies: in vivo, 672 h, time 28 day. The data set is classed as toxicity, organism-based.
Data set [5] in a line: Neurotoxicity in Kunming mouse assessed as nuclei damage at 50 mg/kg, ip administered for 28 days by TEM analysis. The data set is classed as toxicity, organism-based. As to conditions: in vivo, 672 h, time 28 day.
The nature of data set [6]: Neurotoxicity in Kunming mouse assessed as deformed pyramidal cells in brain at 50 mg/kg, ip administered for 28 days by H and E staining based assay. The data set is classed as toxicity, organism-based. The following applies: in vivo, 672 h, time 28 day.
Data set [7] in a line: Neurotoxicity in Kunming mouse assessed as swollen pyramidal cells in brain at 50 mg/kg, ip administered for 28 days by H and E staining based assay. In kind it is toxicity, organism-based. As to conditions: in vivo, 672 h, time 28 day.
Data set [8] can be described thus: Neurotoxicity in Kunming mouse assessed as effect on hippocampal structure at 50 mg/kg, ip administered for 28 days by TEM analysis. As to conditions: in vivo, 672 h, time 28 day. The data set is classed as toxicity, organism-based.
Data set [9] can be described thus: Neurotoxicity in Kunming mouse assessed as effect on hippocampal arrangement at 50 mg/kg, ip administered for 28 days by TEM analysis. The following applies: in vivo, 672 h, time 28 day. The data set is classed as toxicity, organism-based.
Data set [10] is described as follows: Neurotoxicity in Kunming mouse assessed as loosely arranged pyramidal cells in brain at 50 mg/kg, ip administered for 28 days by H and E staining based assay. In kind it is toxicity, organism-based. As to conditions: in vivo, 672 h, time 28 day.
Data set [11] has as its system Echinococcus granulosus. Put plainly: Parasiticidal activity against Echinococcus granulosus microcyst infected in kunming mouse assessed as mean cyst weight at 25 mg/kg, ip administered for 14 days. The data set is classed as functional. As to conditions: time 14 day.
Data set [12] deals with Echinococcus granulosus. Put plainly: Parasiticidal activity against Echinococcus granulosus microcyst infected in kunming mouse assessed as mean cyst weight at 25 mg/kg, ip administered for 28 days. The following applies: time 28 day. The data set is classed as functional.
The subject of data set [13] is Echinococcus granulosus. Put plainly: Parasiticidal activity against Echinococcus granulosus microcyst infected in kunming mouse assessed as mean cyst weight at 50 mg/kg, ip administered for 14 days. The data set is classed as functional. As to conditions: time 14 day.
For data set [14], the system named is Echinococcus granulosus. Put plainly: Parasiticidal activity against intraperitoneal cystic Echinococcus granulosus infected in Kunming mouse assessed as reduction in cell count with clear nucleolus at 50 mg/kg, ip administered for 28 days by TEM analysis. In kind it is functional, organism-based. As to conditions: time 28.0 day.
The subject of data set [15] is Echinococcus granulosus. Put plainly: Parasiticidal activity against Echinococcus granulosus microcyst infected in kunming mouse assessed as reduction in cyst weight at 25 mg/kg, ip administered for 14 days relative to control. The data set is classed as functional. Details: scale not given: the % may be the effect or the level left. The following applies: time 14 day.

Data set [16] has as its system Echinococcus granulosus. The data set is described as follows: Parasiticidal activity against Echinococcus granulosus microcyst infected in kunming mouse assessed as mean cyst weight at 12.5 mg/kg, ip administered for 28 days. In kind it is functional. As to conditions: time 28 day.
Data set [17] concerns Echinococcus granulosus. The data set is described as follows: Parasiticidal activity against intraperitoneal cystic Echinococcus granulosus infected in Kunming mouse assessed as decrease number of microvilli at 50 mg/kg, ip administered for 28 days by TEM analysis. In kind it is functional, organism-based. The following applies: time 28.0 day.
For data set [18], the system named is Echinococcus granulosus. Put plainly: Parasiticidal activity against Echinococcus granulosus protoscolices assessed as appearance of partial shedding at 5 uM incubated for 4 days by H and E staining based assay. As to conditions: time 4.0 day. The data set is classed as functional, organism-based.
Data set [19] concerns Echinococcus granulosus. The data set is described as follows: Parasiticidal activity against Echinococcus granulosus microcyst infected in kunming mouse assessed as reduction in cyst weight at 25 mg/kg, ip administered for 28 days relative to control. In kind it is functional. As to conditions: time 28 day. Details: scale not given: the % may be the effect or the level left.

The test system of data set [20] is Echinococcus granulosus. The data set is described as follows: Parasiticidal activity against Echinococcus granulosus protoscolices assessed as body shrank with irregular edge at 5 uM incubated for 4 days by H and E staining based assay. The data set is classed as functional, organism-based. As to conditions: time 4.0 day.
The subject of data set [21] is Echinococcus granulosus. Put plainly: Parasiticidal activity against Echinococcus granulosus assessed as cyst destruction at 100 uM incubated for 4 days by scanning electron microscopy. As to conditions: time 4.0 day. In kind it is functional, organism-based.
In data set [22] the test system is Echinococcus granulosus. The data set is described as follows: Parasiticidal activity against Echinococcus granulosus protoscolices assessed as outer skin and hooks fall off at 5 uM incubated for 2 days by scanning electron microscopy. In kind it is functional, organism-based. As to conditions: time 2.0 day.
Data set [23] relates to Echinococcus granulosus. Put plainly: Parasiticidal activity against Echinococcus granulosus protoscolices assessed as appearance of relative completion of sucker at 5 uM incubated for 2 days by scanning electron microscopy. In kind it is functional, organism-based. As to conditions: time 2.0 day.
Data set [24] concerns Echinococcus granulosus. The data set is described as follows: Parasiticidal activity against Echinococcus granulosus microcyst infected in kunming mouse assessed as reduction in cyst weight at 50 mg/kg, ip administered for 28 days relative to control. In kind it is functional. Details: scale not given: the % may be the effect or the level left. The following applies: time 28 day.

The test system of data set [25] is Echinococcus granulosus. The data set is described as follows: Parasiticidal activity against Echinococcus granulosus microcyst infected in kunming mouse assessed as mean cyst weight at 12.5 mg/kg, ip administered for 14 days. The data set is classed as functional. As to conditions: time 14 day.
For data set [26], the system named is Echinococcus granulosus. The data set is described as follows: Parasiticidal activity against Echinococcus granulosus microcyst infected in kunming mouse assessed as reduction in cyst weight at 50 mg/kg, ip administered for 14 days relative to control. Details: scale not given: the % may be the effect or the level left. The data set is classed as functional. The following applies: time 14 day.

The test system of data set [27] is Echinococcus granulosus. The data set is described as follows: Parasiticidal activity against intraperitoneal cystic Echinococcus granulosus infected in Kunming mouse assessed as appearance of unclear cortex at 50 mg/kg, ip administered for 28 days by TEM analysis. In kind it is functional, organism-based. The following applies: time 28.0 day.
The subject of data set [28] is Echinococcus granulosus. Put plainly: Parasiticidal activity against Echinococcus granulosus microcyst infected in kunming mouse assessed as reduction in cyst weight at 12.5 mg/kg, ip administered for 14 days relative to control. The following applies: time 14 day. Also on record: scale not given: the % may be the effect or the level left. The data set is classed as functional.

Data set [29] deals with Echinococcus granulosus. Put plainly: Parasiticidal activity against Echinococcus granulosus microcyst infected in kunming mouse assessed as reduction in cyst weight at 12.5 mg/kg, ip administered for 28 days relative to control. The data set is classed as functional. Also on record: scale not given: the % may be the effect or the level left. The following applies: time 28 day.

In data set [30] the test system is Echinococcus granulosus. The data set is described as follows: Parasiticidal activity against Echinococcus granulosus microcyst infected in kunming mouse assessed as mean cyst weight at 50 mg/kg, ip administered for 28 days. In kind it is functional. The following applies: time 28 day.
In data set [31] the test system is Echinococcus granulosus. The data set is described as follows: Parasiticidal activity against Echinococcus granulosus protoscolices assessed as survival rate at 1 uM incubated for 48 hrs by eosin exclusion test. In kind it is functional.

As a reminder, the LC50 is the concentration lethal to half of the exposed cells or organisms.

The source made the active and inactive calls. The rule behind the calls is not given here.

As to `COc1cccc(-c2nc(C(=O)Nc3ccc(CN4CCC(N5CCCCC5)CC4)cc3)cc3c2[nH]c2ccccc23)c1`, the LC50 with Echinococcus granulosus [1] turned out to be 18.1 µM. Further, in the data set on Echinococcus granulosus [2], the result was Active.

`COc1ccc(-c2nc(C(=O)Nc3ccc(CN4CCC(N5CCCCC5)CC4)cc3)cc3c2[nH]c2ccccc23)c(OC)c1`: the LC50 with Echinococcus granulosus [1] was 13 µM. The result in the data set on Echinococcus granulosus [2] was Active.

As for `CCCSc1ccc2nc(NC(=O)OC)[nH]c2c1` [ALBENDAZOLE], the Activity entry in [3], in [4], in data set [5], in data set [6], in [7] and in data set [8] was “Non-Toxic” in each case. In addition, the Activity entry in [9] and in data set [10] was “Non-Toxic” throughout.

Turning to `CCCSc1ccc2[nH]c(NC(=O)OC)nc2c1` [ALBENDAZOLE], the Activity in the data set on Echinococcus granulosus [11] was 26.2 mg; in the data set on Echinococcus granulosus [12] it was 25.3 mg; in the data set on Echinococcus granulosus [13], 23.3 mg; in the data set with Echinococcus granulosus [15], 49.16%; in the data set on Echinococcus granulosus [16], 26.7 mg; with Echinococcus granulosus [19] it was 53.45%. For the same molecule, the Activity in the data set with Echinococcus granulosus [24] was found to be 55.4%; in the data set with Echinococcus granulosus [25] it was 29.5 mg; with Echinococcus granulosus [26] it was 54.7%; with Echinococcus granulosus [28], 42.77%; with Echinococcus granulosus [29] it was 50.9%; with Echinococcus granulosus [30], 24.2 mg. The Activity with Echinococcus granulosus [31] is reported as 100%. Moreover, the result with Echinococcus granulosus [14], in the data set with Echinococcus granulosus [17], with Echinococcus granulosus [18], in the data set on Echinococcus granulosus [20], with Echinococcus granulosus [22] and in the data set with Echinococcus granulosus [23] was Active. Besides, in the data set with Echinococcus granulosus [27], the result was Active. In the data set on Echinococcus granulosus [21], the outcome was inactive. In addition, the 50% lethal concentration (LC50) with Echinococcus granulosus [1] worked out at 154 µM.

In the data set on Echinococcus granulosus [1], `COc1cc(OC)cc(-c2nc(C(=O)Nc3ccc(CN4CCC(N5CCCCC5)CC4)cc3)cc3c2[nH]c2ccccc23)c1` had an LC50 of 7.16 µM. In the data set with Echinococcus granulosus [2], the result was Active.

In turn, `COc1ccc(-c2nc(C(=O)Nc3ccc(CN4CCC(N5CCCCC5)CC4)cc3)cc3c2[nH]c2ccccc23)cc1OC` showed an LC50 in the data set with Echinococcus granulosus [1] of 6.49 µM. The outcome in the data set on Echinococcus granulosus [2] was Active.

Regarding `COc1ccccc1-c1nc(C(=O)Nc2ccc(CN3CCC(N4CCCCC4)CC3)cc2)cc2c1[nH]c1ccccc12`, the 50% lethal concentration (LC50) in the data set on Echinococcus granulosus [1] worked out at 13.4 µM. Further, the outcome in the data set on Echinococcus granulosus [2] was Active.
